Like-named read-outs stand apart in the source and are kept apart here.
Molecular target: T1, mouse CB1 receptor (Mus musculus, UniProt P47746)
T1 construct: radioligand displacement assay using mouse brain plasma membranes; from tissue; host or cells: mouse brain plasma membranes
Experiment: radioligand displacement assay using mouse brain plasma membranes and 3H-CP55540
Type: binding
Text: In addition, the compounds disclosed herein may be less lipophilic.

T1 sequence (P47746 whole entry): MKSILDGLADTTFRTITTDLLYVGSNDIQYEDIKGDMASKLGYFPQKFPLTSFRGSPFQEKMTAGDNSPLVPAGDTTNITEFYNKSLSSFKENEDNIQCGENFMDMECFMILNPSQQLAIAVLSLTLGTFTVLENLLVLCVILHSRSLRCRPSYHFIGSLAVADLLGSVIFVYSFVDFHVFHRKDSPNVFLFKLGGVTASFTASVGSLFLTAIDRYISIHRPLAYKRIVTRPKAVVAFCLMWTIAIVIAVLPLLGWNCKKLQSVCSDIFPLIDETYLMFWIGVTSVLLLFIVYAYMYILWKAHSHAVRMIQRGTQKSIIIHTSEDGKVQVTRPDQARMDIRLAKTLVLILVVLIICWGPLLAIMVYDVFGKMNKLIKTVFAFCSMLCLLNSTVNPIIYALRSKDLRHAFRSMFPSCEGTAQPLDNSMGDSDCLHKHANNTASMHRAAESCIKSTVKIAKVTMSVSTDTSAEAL

| Compound | Ki (mouse brain plasma membranes, 3H-CP55540 as labeled ligand, read-out: Ki CB1) [nM] | Ki [nM] |
| --- | --- | --- |
| CC(=O)NC(=N)NC(=NS(=O)(=O)N1CCC(F)(F)CC1)N1CC(c2ccccc2)C(c2ccc(Cl)cc2)=N1 (stereo not drawn) [MRI-1950] | 1.2 |  |
| CC(C)(C)/C(N)=N/C(=N/S(=O)(=O)N1CCC(F)(F)CC1)N1CC(c2ccccc2)C(c2ccc(Cl)cc2)=N1 (stereo not drawn) [Table 1 Serial # 10] |  | 21 |
| C/C(N)=N/C(=N/S(=O)(=O)N1CCC(C(F)(F)F)CC1)N1CC(c2ccccc2)C(c2ccc(Cl)cc2)=N1 (stereo not drawn) [Table 1 Serial # 13] |  | 3 |
